Assays:
Echinochloa oryzicola [1] = test: Herbicide activity against Echinochloa oryzicola under greenhouse condition compound treated at 2 leaf-stage measured after 14 to 20 days; format: functional
[2] = tested on: Schoenoplectiella juncoides; test: Herbicide activity against Schoenoplectiella juncoides under greenhouse condition compound treated at emergence-stage measured after 14 to 20 days; format: functional
Oryza sativa [3] = test: Phytotoxicity against two-leaf stage Oryza sativa cv. Nihonbare (rice) planted 1 cm depth measured after […]; format: organism-based; details: in vivo
Oryza sativa [4] = test: Phytotoxicity against two-leaf stage Oryza sativa cv. Nihonbare (rice) planted 3 cm depth measured after […]; format: organism-based; details: in vivo
Sagittaria pygmaea = test: Herbicide activity against Sagittaria pygmaea under greenhouse condition compound treated at 0.5 leaf-stage measured after 14 to 20 days; format: functional
Echinochloa oryzicola [5] = test: Pre-emergence herbicide activity against Echinochloa oryzicola under greenhouse condition measured after 14 to 20 days; format: functional

Row | SMILES | MED (Echinochloa oryzicola [1]) [g/acre] | MED [2] [g/acre] | MTD (Oryza sativa [3]) [g/acre] | MTD (Oryza sativa [4]) [g/acre] | MED (Sagittaria pygmaea) [g/acre] | MED (Echinochloa oryzicola [5]) [g/acre]
1 | CC1=C(c2ccccc2C(=O)O)C(=O)N(C(C)(C)c2nc3ccccc3s2)C1 | <5 | 160 | 40 | 20 | 160 | 160
2 | CC1=C(c2ccccc2)C(=O)N(C(C)(C)c2nc3cc(Br)ccc3s2)C1 |  | 160 | 80 | 80 | 160 | 20
3 | CC1=C(c2cccc(Cl)c2)C(=O)N(C(C)(C)c2nc3ccccc3s2)C1 | <5 | 40 | 5 | 10 | 80 | 10
4 | CC1=C(c2ccccc2)C(=O)N(C(C)(C)c2ncc(C(F)(F)F)cc2Cl)C1 | <5 | 80 | 5 | 20 | 80 | <5
5 | CC1=C(c2cccc(F)c2)C(=O)N(C(C)(C)c2nc3ccccc3s2)C1 | 5 | 40 | 5 | 20 | 40 | 5
6 | CC1=C(c2ccccc2)C(=O)N(C(C)(C)c2cccs2)C1 | <10 | 10 | 10 | 20 | 20 | 5
7 | CC1=C(c2ccccc2Cl)C(=O)N(C(C)(C)c2nc3ccccc3s2)C1 | 2.5 | 10 | 1.25 | 2.5 | 10 | 2.5
8 | COc1cccc2sc(C(C)(C)N3CC(C)=C(c4ccccc4)C3=O)nc12 | <5 | 80 | 20 | 40 | 80 | 10
9 | CC1=C(c2ccccc2C#N)C(=O)N(C(C)(C)c2nc3ccccc3s2)C1 | <5 | 5 | > 5 | 5 | 40 | 10
10 | CC1=C(c2ccccc2)C(=O)N(C(C)(C)c2csc3ccccc23)C1 | <5 | 80 | 2.5 | 10 | 80 | 2.5
11 | CC1=C(c2ccccc2)C(=O)N(C(C)(C)c2nc3ccccc3n2C)C1 | <5 | 40 | 80 | 40 | 20 | <10
12 | CC1=C(c2ccccc2)C(=O)N(C(C)(C)c2sc3ccccc3[n+]2[O-])C1 | <5 | 160 | 80 | 80 | 160 | <10
13 | COc1ccccc1C1=C(C)CN(C(C)(C)c2nc3ccccc3s2)C1=O | <5 | 5 | > 5 | 5 | 5 | 5
14 | CC1=C(c2ccccc2)C(=O)N(C(C)(C)c2nc3cc(Cl)ccc3s2)C1 | <5 | 40 | 10 | 40 | 80 | 0.625
15 | CC1=C(c2ccccc2)C(=O)N(C(C)(C)c2nc3c(C)cccc3s2)C1 | <5 | 160 | 5 | 20 | 80 | 2.5
16 | CC1=C(c2ccc(F)cc2)C(=O)N(C(C)(C)c2nc3ccccc3s2)C1 | 5 | 20 | > 5 | 20 | 20 | 5
17 | CC(C)(c1nc2ccccc2s1)N1CC(C(F)(F)F)=C(c2ccccc2)C1=O | <5 | 80 | 5 | 10 | 40 | 1.25
18 | CC1=C(c2ccccc2)C(=O)N(C(C)(C)c2nc(C(C)(C)C)cs2)C1 | 5 | 80 | 5 | 10 | 80 | 5
19 | CC1=C(Oc2ccc(Cl)cc2)C(=O)N(C(C)(C)c2nc3ccccc3s2)C1 | <5 | 160 | 40 | 40 | 160 | 80

Row | SMILES | MED (Echinochloa oryzicola [1]) [g/acre] | MED [2] [g/acre] | MTD (Oryza sativa [3]) [g/acre] | MTD (Oryza sativa [4]) [g/acre] | MED (Sagittaria pygmaea) [g/acre] | MED (Echinochloa oryzicola [5]) [g/acre]
20 | CC1=C(c2ccccc2)C(=O)N(C(C)(C)c2nc3cc(F)ccc3s2)C1 | 5 | 40 | 1.25 | 10 | 20 | 1.25
21 | CC1=C(c2ccccc2)C(=O)N(C(C)(C)c2csc(-c3ccccc3)n2)C1 | <5 | 40 | 40 | 40 | 40 | 40
22 | CC1=C(c2ccccc2)C(=O)N(C(C)(C)c2nc3cc(C(F)(F)F)ccc3s2)C1 | <5 | 80 | 20 | 20 | 160 | 80
23 | CC1=C(c2cccc(C(F)(F)F)c2)C(=O)N(C(C)(C)c2nc3ccccc3s2)C1 | <5 | 160 | 20 | 20 | 160 | 80
24 | COc1ccc(OC)c(C2=C(C)CN(C(C)(C)c3nc4ccccc4s3)C2=O)c1 | <5 | 160 | 10 | 20 | 160 | 80
25 | COc1ccc2nc(C(C)(C)N3CC(C)=C(c4ccccc4)C3=O)sc2c1 | 2.5 | 20 | > 5 | 10 | 40 | 0.313
26 | CC1=C(c2ccc(Cl)cc2)C(=O)N(C(C)(C)c2nc3ccccc3s2)C1 | <5 | 160 | 20 | 40 | 160 | 80
27 | CC1=C(c2ccccc2)C(=O)N(C(C)(C)c2ncc(-c3ccc(Cl)cc3)s2)C1 | <5 | 160 | 80 | 80 | 160 | 40
28 | CC1=C(c2ccccc2Br)C(=O)N(C(C)(C)c2nc3ccccc3s2)C1 | <5 | 20 | > 5 | 5 | 40 | 2.5
29 | CC(C)(c1nc2ccccc2s1)N1CC=C(c2ccccc2)C1=O | 5 | 5 | 2.5 | < 20 | 10 | 0.625
30 | CC1=C(c2ccccc2)C(=O)N(C(C)(C)c2nc3ccc(Cl)cc3s2)C1 | <5 | 160 | 20 | 40 | 80 | 1.25
31 | CC1=C(c2ccccc2)C(=O)N(C(C)(C)c2cc3ccccc3s2)C1 | 5 | 80 | 10 | 20 | 160 | 0.313
32 | CC1=C(c2ccccc2C(F)(F)F)C(=O)N(C(C)(C)c2nc3ccccc3s2)C1 | <5 | 80 | 20 | 40 | 5 | 20
33 | CC1=C(c2ccccc2)C(=O)N(C(C)(C)c2nc3cccc(Cl)c3s2)C1 | <5 | 40 | 10 | 20 | 80 | 0.156
34 | COc1ccc(C2=C(C)CN(C(C)(C)c3nc4ccccc4s3)C2=O)cc1 | <5 | 80 | 10 | 40 | 80 | 20
35 | CC1=C(c2ccc(F)cc2F)C(=O)N(C(C)(C)c2nc3ccccc3s2)C1 | <5 | 10 | > 5 | 10 | 10 | 1.25
36 | CC1=C(Oc2ccccc2)C(=O)N(C(C)(C)c2nc3ccccc3s2)C1 |  | 80 | 40 | 40 | 40 | 80
37 | CC1=C(c2ccccc2)C(=O)N(C(C)(C)c2ccccn2)C1 |  | 40 |  |  | 80 | 20
38 | CC1=C(c2cccc3ccccc23)C(=O)N(C(C)(C)c2nc3ccccc3s2)C1 |  | 80 | 80 | 80 | 80 | 80
